# Experimental data from patent US20180250280A1 (BAYER PHARMA AKTIENGESELLSCHAFT, priority 2015, published 2018).
# pIC50: −log10 of the molar value.
# Experiments:
# [1] = biological target: T1, human plasma kallikrein (Homo sapiens, UniProt P03952); assay: Determination of the plasma kallikrein activity (fluorogenic peptide substrate, AMC cleavage); format: biochemical; conditions: plasma kallikrein from Kordia 0.6 nM; substrate H-Pro-Phe-Arg-AMC 10 μM; 30 min at 22° C.; in some cases averages from multiple determinations
# T1 construct: purchased Kordia
# Description: (§1) To determine the plasma kallikrein inhibition of the substances according to the invention, a biochemical test system is used which utilizes the reaction of a peptidic plasma kallikrein substrate to determine the enzymatic activity of human plasma kallikrein. Here, plasma kallikrein cleaves from the peptic plasma kallikrein substrate the C-terminal aminomethylcoumarin (AMC), the fluorescence of which is measured. The determinations are conducted in microtitre plates.
# Test substances are dissolved in dimethyl sulfoxide and serially diluted in dimethyl sulfoxide (3000 μM to 0.0078 μM; resulting final concentrations in the test: 50 μM to 0.00013 μM). 1 μl of the diluted substance solutions is placed into each of the wells of white microtitre plates from Greiner (384 wells). 20 μl of assay buffer (50 mM Tris/HCl pH 7.4; 100 mM sodium chloride solution; 5 mM calcium chloride solution; 0.1% of bovine serum albumin) and 20 μl of plasma kallikrein from Kordia (0.6 nM in assay buffer) are then added successively. After 15 min of incubation, the enzyme reaction is started by addition of 20 μl of the substrate H-Pro-Phe-Arg-AMC dissolved in assay buffer (10 μM in assay buffer) from Bachem, the mixture is incubated at room temperature (22° C.) for 30 min and fluorescence is then measured (excitation: 360 nm, emission: 460 nm). The measured emissions of the test batches with test substance are compared to those of control batches without test substance (only dimethyl sulfoxide instead of test substance in dimethyl sulfoxide), and IC50 values are calculated from the concentration/activity relationships. Activity data from this test are given in Table B below (in some cases as averages from multiple individual determinations): […]
# [2] = biological target: T2, human factor XIa (Homo sapiens, UniProt P03951); assay: Measurement of FXIa inhibition (fluorogenic peptide substrate, AMC cleavage); format: biochemical; conditions: factor XIa from Kordia 0.45 nM; substrate Boc-Glu(OBzl)-Ala-Arg-AMC 10 μM; 30 min at 22° C.; in some cases averages from multiple determinations
# T2 construct: purchased Kordia
# Description: as §1, with “The factor XIa” for “To determine the plasma kallikrein”, “invention is determined using” for “invention,”, “system” for “system is used”, “factor XIa” for “plasma kallikrein”, “factor XIa.” for “plasma kallikrein.”
# Test substances are dissolved in dimethyl sulfoxide and serially diluted in dimethyl sulfoxide (3000 μM to 0.0078 μM; resulting final concentrations in the test: 50 μM to 0.00013 μM). 1 μl of the diluted substance solutions is placed into each of the wells of white microtitre plates from Greiner (384 wells). 20 μl of assay buffer (50 mM of Tris/HCl pH 7.4; 100 mM of sodium chloride; 5 mM of calcium chloride; 0.1% of bovine serum albumin) and 20 μl of factor XIa from Kordia (0.45 nM in assay buffer) are then added successively. After 15 min of incubation, the enzyme reaction is started by addition of 20 μl of the factor XIa substrate Boc-Glu(OBzl)-Ala-Arg-AMC dissolved in assay buffer (10 μM in assay buffer) from Bachem, the mixture is incubated at room temperature (22° C.) for 30 min and fluorescence is then measured (excitation: 360 nm, emission: 460 nm). The measured emissions of the test batches with test substance are compared to those of control batches without test substance (only dimethyl sulfoxide instead of test substance in dimethyl sulfoxide), and IC50 values are calculated from the concentration/activity relationships. Activity data from this test are given in Table A below (in some cases as averages from multiple individual determinations): […]
# T1 sequence (P03952 391-638 limits assumed): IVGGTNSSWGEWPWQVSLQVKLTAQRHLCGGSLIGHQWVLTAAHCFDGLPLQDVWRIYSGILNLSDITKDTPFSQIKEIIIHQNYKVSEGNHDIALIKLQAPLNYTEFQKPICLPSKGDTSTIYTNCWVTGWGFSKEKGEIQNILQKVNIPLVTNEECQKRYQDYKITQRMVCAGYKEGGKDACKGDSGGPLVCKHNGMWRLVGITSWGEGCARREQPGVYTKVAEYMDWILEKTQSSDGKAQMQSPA
# T1 sequence (P03952 20-390 partner limits assumed): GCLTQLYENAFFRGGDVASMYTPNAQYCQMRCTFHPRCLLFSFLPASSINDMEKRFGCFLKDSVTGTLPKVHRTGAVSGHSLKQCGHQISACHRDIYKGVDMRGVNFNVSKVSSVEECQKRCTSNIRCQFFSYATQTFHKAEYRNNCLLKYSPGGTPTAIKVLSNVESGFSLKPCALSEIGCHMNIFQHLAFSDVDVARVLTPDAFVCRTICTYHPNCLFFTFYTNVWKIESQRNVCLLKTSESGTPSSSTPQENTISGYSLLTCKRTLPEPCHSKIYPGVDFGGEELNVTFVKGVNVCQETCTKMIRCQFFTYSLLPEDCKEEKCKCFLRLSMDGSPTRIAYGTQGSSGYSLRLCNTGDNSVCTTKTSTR
# T2 sequence (P03951 388-625 limits assumed): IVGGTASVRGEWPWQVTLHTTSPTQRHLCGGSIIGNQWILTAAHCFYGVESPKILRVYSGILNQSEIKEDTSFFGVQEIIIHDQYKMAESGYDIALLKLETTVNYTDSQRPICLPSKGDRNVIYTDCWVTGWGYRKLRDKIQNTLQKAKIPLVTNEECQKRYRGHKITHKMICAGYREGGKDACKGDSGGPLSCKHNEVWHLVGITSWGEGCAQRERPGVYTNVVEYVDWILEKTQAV
# T2 sequence (P03951 19-387 partner limits assumed): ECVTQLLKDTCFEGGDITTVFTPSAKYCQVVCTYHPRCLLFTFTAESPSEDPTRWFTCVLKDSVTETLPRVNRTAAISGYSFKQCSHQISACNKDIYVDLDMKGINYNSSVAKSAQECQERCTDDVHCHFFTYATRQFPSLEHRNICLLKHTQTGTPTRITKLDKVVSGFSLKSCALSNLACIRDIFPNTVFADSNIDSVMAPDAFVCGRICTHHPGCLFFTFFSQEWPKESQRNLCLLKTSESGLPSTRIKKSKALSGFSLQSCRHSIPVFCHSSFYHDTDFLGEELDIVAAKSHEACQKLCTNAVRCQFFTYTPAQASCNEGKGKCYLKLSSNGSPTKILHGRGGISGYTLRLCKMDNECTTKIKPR
Compound,pIC50 [1],pIC50 [2]
"CNC(=O)c1ccc(NC(=O)C(C[C@H](C)OC)n2cc(OC)c(-c3cc(Cl)ccc3OCC(F)(F)F)cc2=O)cn1 (mixture of isomers) [Example 36, 5-{[(4S)-2-{4-[5-Chloro-2-(2,2,2-trifluoroethoxy)phenyl]-5-methoxy-2-oxopyridin-1(2H)-yl}-4-methoxypentanoyl]amino}-N-methylpyridine-2-carboxamide]",7.15,8.21
"COc1cn(C(C[C@H](C)OC)C(=O)Nc2ccc3nn(C)cc3c2)c(=O)cc1-c1cc(Cl)ccc1OCC(F)(F)F (mixture of isomers) [Example 37, (4S)-2-{4-[5-Chloro-2-(2,2,2-trifluoroethoxy)phenyl]-5-methoxy-2-oxopyridin-1(2H)-yl}-4-methoxy-N-(2-methyl-2H-indazol-5-yl)pentanamide]",7.14,8.10
"COc1cn(C(CCOC(F)(F)F)C(=O)Nc2ccc3nn(C)cc3c2)c(=O)cc1-c1cc(Cl)ccc1OCC(F)(F)F (racemic) [Example 38, 2-{4-[5-Chloro-2-(2,2,2-trifluoroethoxy)phenyl]-5-methoxy-2-oxopyridin-1(2H)-yl}-N-(2-methyl-2H-indazol-5-yl)-4-(trifluoromethoxy)butanamide]",7.03,7.89
"COc1cn(C(CCOC(F)(F)F)C(=O)Nc2ccc(C(N)=O)c(F)c2)c(=O)cc1-c1cc(Cl)ccc1OCC(F)(F)F (racemic) [Example 42, 4-{[2-{4-[5-Chloro-2-(2,2,2-trifluoroethoxy)phenyl]-5-methoxy-2-oxopyridin-1(2H)-yl}-4-(trifluoromethoxy)butanoyl]amino}-2-fluorobenzamide]",6.72,7.54

# More lines, now with the values ahead:
pIC50 [1],pIC50 [2],Compound
7.35,8.72,"COc1cn(C(CCOC(C)C)C(=O)Nc2ccc(C(=O)O)cc2)c(=O)cc1-c1cc(Cl)ccc1OCC(F)(F)F (racemic) [Example 34, 4-[(2-{4-[5-Chloro-2-(2,2,2-trifluoroethoxy)phenyl]-5-methoxy-2-oxopyridin-1(2H)-yl}-4-isopropoxybutanoyl)amino]benzoic acid]"
6.89,8.62,"COc1cn(C(C[C@H](C)OC)C(=O)Nc2ccc(C(=O)O)cc2)c(=O)cc1-c1cc(Cl)ccc1OCC(F)(F)F (mixture of isomers) [Example 35, 4-{[(4S)-2-{4-[5-Chloro-2-(2,2,2-trifluoroethoxy)phenyl]-5-methoxy-2-oxopyridin-1(2H)-yl}-4-methoxypentanoyl]amino}benzoic acid]"
7.25,7.80,"COc1cn(C(CCOC(C)C)C(=O)Nc2ccc3nn(C)cc3c2)c(=O)cc1-c1cc(Cl)ccc1OCC(F)(F)F (racemic) [Example 39, 2-{4-[5-Chloro-2-(2,2,2-trifluoroethoxy)phenyl]-5-methoxy-2-oxopyridin-1(2H)-yl}-4-isopropoxy-N-(2-methyl-2H-indazol-5-yl)butanamide]"
6.64,7.72,"COc1cn(C(C[C@H](C)OC)C(=O)Nc2ccc(C(N)=O)c(F)c2)c(=O)cc1-c1cc(Cl)ccc1OCC(F)(F)F (mixture of isomers) [Example 40, 4-{[(4S)-2-{4-[5-Chloro-2-(2,2,2-trifluoroethoxy)phenyl]-5-methoxy-2-oxopyridin-1(2H)-yl}-4-methoxypentanoyl]amino}-2-fluorobenzamide]"
6.89,7.60,"COc1cn(C(CCOC(C)C)C(=O)Nc2ccc(C(N)=O)c(F)c2)c(=O)cc1-c1cc(Cl)ccc1OCC(F)(F)F (racemic) [Example 41, 4-[(2-{4-[5-Chloro-2-(2,2,2-trifluoroethoxy)phenyl]-5-methoxy-2-oxopyridin-1(2H)-yl}-4-isopropoxybutanoyl)amino]-2-fluorobenzamide]"
7.49,8.74,"COc1cn(C(CCOC2(C)CCC2)C(=O)Nc2ccc(C(=O)O)cc2)c(=O)cc1-c1cc(Cl)ccc1OCC(F)(F)F (racemic) [Example 55, 4-[(2-{4-[5-Chloro-2-(2,2,2-trifluoroethoxy)phenyl]-5-methoxy-2-oxopyridin-1(2H)-yl}-4-[(1-methylcyclobutyl)oxy]butanoyl)amino]benzoic acid]"
